What was measured:
Type in all cases: cell-based
[1] = test system: Agrobacterium strain AGL0; test: Agrobacterium growth assay on solid minimal medium, wild-type AGL0; set-up: key to Growth score: a score of zero (0) indicating no visible colonies; 1+ indicating a few isolated colonies; ++: progressing up to 5+; +++: progressing up to 5+; ++++: progressing up to 5+; +++++: 5+ indicating a confluent lawn
Protocol: (§1) For all Agrobacterium growth-assay experiments, standard Agrobacterium minimal medium was used, with no additives as a control treatment, or with the addition of either 5-fluorocytosine, 5-fluorouracil or thymidine. To begin these tests, experiments were conducted to test for growth of wild-type and mutant AGL0 Agrobacterium strains on either 5-fluorocytosine (5-fluorocytosine, the non-toxic substrate of the CODA protein) or 5-fluorouracil (5-fluorouracil, the toxic product).
(§2) In Table 4, results of a more detailed kill-curve for strain AGL0 on 5-fluorouracil are shown. […] Finally, a third experiment was performed using either wild-type AGL0 or an auxotrophic mutant of AGL0 in which the gene encoding thymidylate synthase was inactivated, rendering the bacteria incapable of growth in the absence of thymidine (this strain was referred to as AGL0 THY−). The two strains were plated at high densities (10^6 or 10^8 CFU/plate) onto medium containing 0, 1 or 3 μg/ml 5-fluorouracil, with each of these three treatments containing either 0 or 50 mg/l thymidine.
The newly developed AGL0 mutant strain (THY−/codA+, see Example 1) was plated on varying concentrations of 5-fluorocytosine to assess growth. This strain, along with wild-type AGL0 were cultured overnight in liquid medium, diluted to 10^7 CFU and then 100 μl of suspension was plated onto minimal Agro medium+/− thymidine, with either 0, 100, 200 or 300 μg/ml 5-fluorocytosine, for a total of 8 treatments. After 72 hours at 28° C., the plates were scored for Agrobacterium growth.

[2] = test system: Agrobacterium strain LBA4404; test: Agrobacterium growth assay on solid minimal medium, LBA4404; set-up: key: a score of zero (0) indicating no visible colonies; 1+ indicating a few isolated colonies; ++: progressing up to 5+; +++: progressing up to 5+; ++++: progressing up to 5+; +++++: 5+ indicating a confluent lawn; settings: LBA4404 plated at 1 × 10^4, after 3 days
Protocol: as §1

[3] = test system: Agrobacterium strain EHA101; test: Agrobacterium growth assay on solid minimal medium, EHA101; set-up: key: a score of zero (0) indicating no visible colonies; 1+ indicating a few isolated colonies; ++: progressing up to 5+; +++: progressing up to 5+; ++++: progressing up to 5+; +++++: 5+ indicating a confluent lawn; settings: EHA101 plated at 1 x 10^4, after 3 days
Protocol: as §1

[4] = test system: Agrobacterium strain EHA105; test: Agrobacterium growth assay on solid minimal medium, EHA105; set-up: key: a score of zero (0) indicating no visible colonies; 1+ indicating a few isolated colonies; ++: progressing up to 5+; +++: progressing up to 5+; ++++: progressing up to 5+; +++++: 5+ indicating a confluent lawn; settings: EHA105 plated at 1 × 10^4, after 3 days
Protocol: as §1

AGL0 THY− = test: Agrobacterium growth assay on solid medium, thymidine auxotroph AGL0 THY−; settings: for Growth score: after 24 hours
Protocol: as §2

[5] = test system: four Agrobacterium strains (AGL0, LBA4404, EHA101 and EHA105); test: Agrobacterium growth assay, the four strains
Protocol: as §1

O=c1[nH]cc(F)c(=O)[nH]1 [5-fluorouracil]
no growth: Growth ([5]; 1 μg/ml 5-fluorouracil, all four strains plated at the lower density (1×10^4 CFU))
over 300 fold: Totally inhibiting 5-fluorouracil concentration (3 μg/ml) relative to highest 5-fluorocytosine concentration tested (1000 μg/ml) ([5]; fold lower)
++: Growth score ([1]; AGL0 1 × 10^3 CFU, 0.1 μg/ml 5-fluorouracil, 72 hours) | Growth score ([1]; AGL0 1 × 10^4 CFU, 0.1 μg/ml 5-fluorouracil, 72 hours) | Growth score ([1]; AGL0 1 × 10^6 CFU, 0.1 μg/ml 5-fluorouracil, 72 hours) | Growth score ([1]; AGL0 1 × 10^7 CFU, 0.1 μg/ml 5-fluorouracil, 72 hours) | Growth score ([3]; 0.1 μg/ml 5-fluorouracil)
only a few colonies grew: Growth ([1]; 0.3 μg/ml 5-fluorouracil, plating densities 1×10^3 to 1×10^8 CFU/plate)
0: Growth score ([1]; AGL0 1 x 10^6, 5-fluorouracil 1 μg/ml, no thymidine, after 24 hours) | Growth score ([1]; AGL0 1 x 10^6, 5-fluorouracil 1 μg/ml, thy 50 mg/l, after 24 hours) | Growth score ([1]; AGL0 1 x 10^6, 5-fluorouracil 3 μg/ml, no thymidine, after 24 hours) | Growth score ([1]; AGL0 1 x 10^6, 5-fluorouracil 3 μg/ml, thy 50 mg/l, after 24 hours) | Growth score ([1]; AGL0 1 x 10^8, 5-fluorouracil 1 μg/ml, no thymidine, after 24 hours) | Growth score ([1]; AGL0 1 x 10^8, 5-fluorouracil 1 μg/ml, thy 50 mg/l, after 24 hours) | Growth score ([1]; AGL0 1 x 10^8, 5-fluorouracil 3 μg/ml, no thymidine, after 24 hours) | Growth score ([1]; AGL0 1 x 10^8, 5-fluorouracil 3 μg/ml, thy 50 mg/l, after 24 hours) | Growth score ([1]; AGL0 1 × 10^3 CFU, 1 μg/ml 5-fluorouracil, 72 hours) | Growth score ([1]; AGL0 1 × 10^3 CFU, 3 μg/ml 5-fluorouracil, 72 hours) | Growth score ([1]; AGL0 1 × 10^4 CFU, 1 μg/ml 5-fluorouracil, 72 hours) | Growth score ([1]; AGL0 1 × 10^4 CFU, 3 μg/ml 5-fluorouracil, 72 hours) | Growth score ([1]; AGL0 1 × 10^5 CFU, 1 μg/ml 5-fluorouracil, 72 hours) | Growth score ([1]; AGL0 1 × 10^5 CFU, 3 μg/ml 5-fluorouracil, 72 hours) | Growth score ([1]; AGL0 1 × 10^6 CFU, 1 μg/ml 5-fluorouracil, 72 hours) | Growth score ([1]; AGL0 1 × 10^6 CFU, 3 μg/ml 5-fluorouracil, 72 hours) | Growth score ([1]; AGL0 1 × 10^7 CFU, 1 μg/ml 5-fluorouracil, 72 hours) | Growth score ([1]; AGL0 1 × 10^7 CFU, 3 μg/ml 5-fluorouracil, 72 hours) | Growth score ([1]; AGL0 1 × 10^8 CFU, 1 μg/ml 5-fluorouracil, 72 hours) | Growth score ([1]; AGL0 1 × 10^8 CFU, 3 μg/ml 5-fluorouracil, 72 hours) | Growth score ([1]; AGL0 plated at 1 × 10^4, 1.0 μg/ml 5-fluorouracil, after 3 days) | Growth score ([1]; AGL0 plated at 1 × 10^4, 3.0 μg/ml 5-fluorouracil, after 3 days) | Growth score ([1]; AGL0 plated at 4 × 10^7, 3.0 μg/ml 5-fluorouracil, after 3 days) | Growth score ([2]; 1.0 μg/ml 5-fluorouracil) | Growth score ([2]; 3.0 μg/ml 5-fluorouracil) | Growth score ([3]; 1.0 μg/ml 5-fluorouracil) | Growth score ([3]; 3.0 μg/ml 5-fluorouracil) | Growth score ([4]; 1.0 μg/ml 5-fluorouracil) | Growth score ([4]; 3.0 μg/ml 5-fluorouracil) | Growth score (AGL0 THY−; AGL0 THY- 1 x 10^6, 5-fluorouracil 1 μg/ml, no thymidine) | Growth score (AGL0 THY−; AGL0 THY- 1 x 10^6, 5-fluorouracil 1 μg/ml, thy 50 mg/l) | Growth score (AGL0 THY−; AGL0 THY- 1 x 10^6, 5-fluorouracil 3 μg/ml, no thymidine) | Growth score (AGL0 THY−; AGL0 THY- 1 x 10^6, 5-fluorouracil 3 μg/ml, thy 50 mg/l) | Growth score (AGL0 THY−; AGL0 THY- 1 x 10^8, 5-fluorouracil 1 μg/ml, no thymidine) | Growth score (AGL0 THY−; AGL0 THY- 1 x 10^8, 5-fluorouracil 1 μg/ml, thy 50 mg/l) | Growth score (AGL0 THY−; AGL0 THY- 1 x 10^8, 5-fluorouracil 3 μg/ml, no thymidine) | Growth score (AGL0 THY−; AGL0 THY- 1 x 10^8, 5-fluorouracil 3 μg/ml, thy 50 mg/l)
completely inhibited: Growth ([1]; 1 μg/ml 5-fluorouracil or higher, all plating densities)
+++: Growth score ([1]; AGL0 1 × 10^5 CFU, 0.1 μg/ml 5-fluorouracil, 72 hours) | Growth score ([1]; AGL0 1 × 10^8 CFU, 0.1 μg/ml 5-fluorouracil, 72 hours) | Growth score ([2]; 0.1 μg/ml 5-fluorouracil)
++++: Growth score ([1]; AGL0 plated at 4 × 10^7, 0.1 μg/ml 5-fluorouracil, after 3 days) | Growth score ([1]; AGL0 plated at 4 × 10^7, 1.0 μg/ml 5-fluorouracil, after 3 days)
no growth was observed: Growth ([1]; wild-type AGL0, 1 and 3 μg/ml 5-fluorouracil, 0 or 50 mg/l thymidine, 24 hours) | Growth (AGL0 THY−; THY− AGL0, 1 and 3 μg/ml 5-fluorouracil, 0 or 50 mg/l thymidine, 24 hours) | Growth ([5]; 3 μg/ml 5-fluorouracil, any strain)
+: Growth score ([1]; AGL0 1 × 10^3 CFU, 0.3 μg/ml 5-fluorouracil, 72 hours) | Growth score ([1]; AGL0 1 × 10^4 CFU, 0.3 μg/ml 5-fluorouracil, 72 hours) | Growth score ([1]; AGL0 1 × 10^5 CFU, 0.3 μg/ml 5-fluorouracil, 72 hours) | Growth score ([1]; AGL0 1 × 10^6 CFU, 0.3 μg/ml 5-fluorouracil, 72 hours) | Growth score ([1]; AGL0 1 × 10^7 CFU, 0.3 μg/ml 5-fluorouracil, 72 hours) | Growth score ([1]; AGL0 1 × 10^8 CFU, 0.3 μg/ml 5-fluorouracil, 72 hours) | Growth score ([1]; AGL0 plated at 1 × 10^4, 0.1 μg/ml 5-fluorouracil, after 3 days) | Growth score ([4]; 0.1 μg/ml 5-fluorouracil)

Source: patent publication US20180265877A1, “METHODS AND COMPOSITIONS FOR AGROBACTERIUM COMPRISING NEGATIVE SELECTION MARKERS” (PIONEER HI-BRED INTERNATIONAL, INC., priority 2015, published 2018)
